Experimental data: PMC6480153, “Discovery of Novel Triazole-Containing Pyrazole Ester Derivatives as Potential Antibacterial Agents” (Molecules, 2019)
In brackets after ≈: the same amount, converted by molar mass. Where two headings read alike, the source gives them in different places.

Experiments:
[1] = tested on: Listeria monocytogenes (ATCC-15313); experiment: MIC by agar-dilution method against Listeria monocytogenes; format: cell-based; conditions: for MIC: read-out: MIC L.m
Description: (§1) In vitro antimicrobial activity of the prepared compounds against four bacteria was evaluated by the conventional agar-dilution method. Ciprofloxacin was selected as a reference standard.
(§2) The solid media Luria-Bertani (LB)-Broth-Agar-Medium (tryptone 10 g/L, yeast 5 g/L, NaCl 10 g/L, agar 15 g/L, and distilled water 1000 mL, adjusted to pH 7.4 was used for testing the antibacterial activity.
(§3) The in vitro antibacterial activity for synthesized compounds 4a–m were evaluated using the agar-dilution method. […] Drugs (10.0 mg) were dissolved in DMSO (1 mL) and the solution was diluted with water (9 mL). […] The bacterial inocula were prepared by suspending 24 h-old bacterial colonies from LB-Broth-Agar-Medium in 0.85% saline. The inocula were adjusted to 0.5 McFarland Standard ([…]). The suspensions were then diluted in 0.85% saline to give 10^7 CFU/mL. Petri dishes were spot-inoculated with 1 μL of each of the prepared bacterial suspensions (10^4 CFU/spot) and incubated at 37 °C for 24 h. […] A control test was also performed with test medium supplemented with DMSO at the same dilutions as used in the experiment in order to ensure that the solvent had no influence on bacterial growth.

[2] = tested on: Salmonella gallinarum (ATCC-9184); experiment: MIC by agar-dilution method against Salmonella gallinarum; format: cell-based; conditions: 24 h; for MIC: Salmonella enterica, read-out: MIC S.e
Description: as §1, §2, §3

[3] = tested on: Staphylococcus aureus (ATCC-12600); experiment: MIC by agar-dilution method against Staphylococcus aureus; format: cell-based; conditions: for MIC: ATCC12600
Description: as §1, §2, §3

[4] = tested on: Escherichia coli (ATCC-25922); experiment: MIC by agar-dilution method against Escherichia coli; format: cell-based; conditions: 24 h; for MIC E. c: 37 °C
Description: as §1, §2, §3

[5] = target: T1, DNA gyrase (Escherichia coli, UniProt P0AES4+P0AES6); experiment: DNA gyrase (topoisomerase II) supercoiling inhibition, gel electrophoresis; format: biochemical; conditions: Topoisomerase II supercoiling activity; enzyme isolated from Escherichia coli
T1 construct: First, the E. coli suspension is extracted to obtain a crude enzyme solution; endogenous in cells
T1 sequence (P0AES4 whole entry, one chain of several): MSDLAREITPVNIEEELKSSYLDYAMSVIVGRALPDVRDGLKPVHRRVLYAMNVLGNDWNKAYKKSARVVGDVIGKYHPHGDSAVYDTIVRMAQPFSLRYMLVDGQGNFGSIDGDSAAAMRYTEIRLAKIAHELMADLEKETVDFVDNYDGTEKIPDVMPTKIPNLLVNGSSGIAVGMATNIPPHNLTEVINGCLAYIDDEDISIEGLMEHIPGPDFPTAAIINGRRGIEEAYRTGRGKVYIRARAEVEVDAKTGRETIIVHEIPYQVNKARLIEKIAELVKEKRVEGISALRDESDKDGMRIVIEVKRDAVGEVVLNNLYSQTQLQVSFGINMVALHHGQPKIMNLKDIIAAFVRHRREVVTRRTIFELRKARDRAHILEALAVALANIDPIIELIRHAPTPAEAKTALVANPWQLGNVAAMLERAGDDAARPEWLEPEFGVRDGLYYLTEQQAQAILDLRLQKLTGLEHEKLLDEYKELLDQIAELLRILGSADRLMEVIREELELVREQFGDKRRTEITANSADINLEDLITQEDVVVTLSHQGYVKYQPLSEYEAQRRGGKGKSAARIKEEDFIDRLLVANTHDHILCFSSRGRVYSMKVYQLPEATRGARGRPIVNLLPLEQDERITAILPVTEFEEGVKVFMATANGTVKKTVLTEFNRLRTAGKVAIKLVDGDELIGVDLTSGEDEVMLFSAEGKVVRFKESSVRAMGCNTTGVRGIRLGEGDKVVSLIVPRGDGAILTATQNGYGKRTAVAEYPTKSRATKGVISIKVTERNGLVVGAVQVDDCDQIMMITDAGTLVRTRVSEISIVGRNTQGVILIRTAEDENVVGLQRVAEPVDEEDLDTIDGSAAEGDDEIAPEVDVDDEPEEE
Description: (§4) In order to determine the relationship between compounds and antibacterial activity, the inhibitory activity of selected compounds (4d and 4k) against DNA gyrase and topoisomerase IV isolated from Escherichia coli was examined.
(§5) The in vitro antibacterial activity of the target compounds was carried out on by the methods of Sato et al. and Peng and Marians. First, the E. coli suspension is extracted to obtain a crude enzyme solution. After the purification step, the selected compounds are determined by gel electrophoresis to obtain data of different gradient concentrations, thereby calculating the IC50 values.

[6] = target: T2, topoisomerase IV (Escherichia coli, UniProt P0AFI2+P20083); experiment: Topoisomerase IV decatenation inhibition, gel electrophoresis; format: biochemical; conditions: Topoisomerase IV decatenation activity, enzyme isolated from Escherichia coli
T2 construct: First, the E. coli suspension is extracted to obtain a crude enzyme solution; endogenous in cells
T2 sequence (P20083 whole entry): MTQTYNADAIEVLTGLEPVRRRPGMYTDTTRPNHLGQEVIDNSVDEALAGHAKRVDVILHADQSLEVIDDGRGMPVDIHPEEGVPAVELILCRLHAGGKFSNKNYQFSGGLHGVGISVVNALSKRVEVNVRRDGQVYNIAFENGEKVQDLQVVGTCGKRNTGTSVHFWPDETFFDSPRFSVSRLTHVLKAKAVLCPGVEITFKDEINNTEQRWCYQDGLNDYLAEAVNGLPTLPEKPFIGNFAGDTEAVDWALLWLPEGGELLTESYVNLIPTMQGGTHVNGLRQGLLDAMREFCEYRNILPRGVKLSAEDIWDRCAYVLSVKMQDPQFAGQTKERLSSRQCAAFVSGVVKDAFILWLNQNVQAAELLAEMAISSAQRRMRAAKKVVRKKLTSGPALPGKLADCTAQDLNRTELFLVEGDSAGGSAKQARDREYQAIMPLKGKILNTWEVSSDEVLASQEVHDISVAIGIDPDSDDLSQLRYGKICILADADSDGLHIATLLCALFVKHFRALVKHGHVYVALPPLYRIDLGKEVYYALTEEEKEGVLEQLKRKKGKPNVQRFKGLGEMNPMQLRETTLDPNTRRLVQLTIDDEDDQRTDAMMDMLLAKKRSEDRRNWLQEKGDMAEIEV
T2 sequence (P0AFI2 whole entry): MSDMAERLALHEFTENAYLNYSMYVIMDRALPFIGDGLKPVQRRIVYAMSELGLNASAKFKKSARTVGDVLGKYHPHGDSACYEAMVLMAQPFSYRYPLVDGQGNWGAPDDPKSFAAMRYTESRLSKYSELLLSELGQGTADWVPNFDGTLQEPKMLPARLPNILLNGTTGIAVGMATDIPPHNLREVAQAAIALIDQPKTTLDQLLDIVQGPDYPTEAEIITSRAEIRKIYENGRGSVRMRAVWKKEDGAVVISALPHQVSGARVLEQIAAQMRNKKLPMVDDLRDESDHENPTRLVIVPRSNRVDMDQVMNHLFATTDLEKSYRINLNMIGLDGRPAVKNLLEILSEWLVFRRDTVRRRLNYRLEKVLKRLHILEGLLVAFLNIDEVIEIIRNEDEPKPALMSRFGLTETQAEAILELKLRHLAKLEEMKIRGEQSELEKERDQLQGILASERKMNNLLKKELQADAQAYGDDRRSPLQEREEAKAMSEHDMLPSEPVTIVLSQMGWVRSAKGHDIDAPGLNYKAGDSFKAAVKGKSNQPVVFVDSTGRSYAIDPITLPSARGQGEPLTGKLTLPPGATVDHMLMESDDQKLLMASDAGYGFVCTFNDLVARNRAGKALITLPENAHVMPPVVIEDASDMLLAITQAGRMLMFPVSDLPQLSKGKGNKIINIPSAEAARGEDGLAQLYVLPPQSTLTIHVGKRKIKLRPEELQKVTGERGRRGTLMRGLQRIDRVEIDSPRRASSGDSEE
Description: as §4, §5

[7] = Staphylococcus aureus ATCC-12600, agar dilution, 37 °C, 24 h
[8] = Listeria monocytogenes ATCC-15313, agar dilution, 37 °C, 24 h
[9] = Salmonella gallinarum ATCC-9184, agar dilution, 37 °C

O=C(O)c1cn(C2CC2)c2cc(N3CCNCC3)c(F)cc2c1=O [CIP, Ciprofloxacin, reference compound]
MIC ([1]; Listeria monocytogenes, ATCC15313, 24 h): 1 µg/mL (≈ 3.02 µM) | MIC [2]: 0.25 µg/mL (≈ 0.754 µM)

Cc1nn(-c2ccccc2)c(Cl)c1C(=O)Oc1ncn(-c2ccccc2)n1 [Compound 4a, 1-phenyl-1H-1,2,4-triazol-3-yl5-chloro-3-methyl-1-phenyl-1H-pyrazole-4-carboxylate]
MIC S.a [3, 7]: 16 µg/mL (≈ 42.1 µM) | MIC L.m [1, 8]: 16 µg/mL (≈ 42.1 µM) | MIC E. c [4]: 8 µg/mL (≈ 21.1 µM) | MIC S.e [2, 9]: 16 µg/mL (≈ 42.1 µM)

Cc1nn(-c2ccc(F)cc2)c(Cl)c1C(=O)Oc1ncn(-c2ccccc2)n1 [Compound 4b, 1-phenyl-1H-1,2,4-triazol-3-yl5-chloro-1-(4-fluorophenyl)-3-methyl-1H-pyrazole-4-carboxylate]
MIC S.a [3, 7]: >128 µg/mL | MIC L.m [1, 8]: >128 µg/mL | MIC E. c [4]: 64 µg/mL (≈ 161 µM) | MIC S.e [2, 9]: 64 µg/mL (≈ 161 µM)

Cc1nn(-c2ccc(Cl)cc2)c(Cl)c1C(=O)Oc1ncn(-c2ccccc2)n1 [Compound 4c, 1-phenyl-1H-1,2,4-triazol-3-yl5-chloro-1-(4-chlorophenyl)-3-methyl-1H-pyrazole-4-carboxylate]
MIC S.a [3, 7]: 64 µg/mL (≈ 154 µM) | MIC L.m [1, 8]: >128 µg/mL | MIC E. c [4]: 64 µg/mL (≈ 154 µM) | MIC S.e [2, 9]: 64 µg/mL (≈ 154 µM)

Cc1ccc(-n2nc(C)c(C(=O)Oc3ncn(-c4ccccc4)n3)c2Cl)cc1 [Compound 4d, 1-phenyl-1H-1,2,4-triazol-3-yl5-chloro-3-methyl-1-(p-tolyl)-1H-pyrazole-4-carboxylate]
IC50 [5]: 34.3 µM | MIC ([3]; Staphylococcus aureus ATCC-12600, agar dilution, 37 °C, 24 h, read-out: MIC S.a): 4 µg/mL (≈ 10.2 µM) | MIC ([3]; Staphylococcus aureus, range stated in text for three compounds, read-out: MIC against Staphylococcus aureus): 4 to 8 µg/mL (≈ 10.2 to 20.3 µM) | MIC ([1]; ATCC15313, Listeria monocytogenes ATCC-15313, agar dilution, 37 °C, 24 h): 2 µg/mL (≈ 5.08 µM) | MIC ([4]; ATCC25922, 37 °C): 4 µg/mL (≈ 10.2 µM) | MIC [2, 9]: 0.5 µg/mL (≈ 1.27 µM) | melting point: 154 to 156 °C | IC50 ([6]; read-out: IC50 Topo IV (converted)): 61.4 µM

Cc1nn(-c2ccccc2)c(Cl)c1C(=O)Oc1ncn(-c2ccc(F)cc2)n1 [Compound 4e, 1-(4-fluorophenyl)-1H-1,2,4-triazol-3-yl5-chloro-3-methyl-1-phenyl-1H-pyrazole-4-carboxylate]
MIC S.a [3, 7]: 64 µg/mL (≈ 161 µM) | MIC L.m [1, 8]: 32 µg/mL (≈ 80.4 µM) | MIC E. c [4]: 32 µg/mL (≈ 80.4 µM) | MIC S.e [2, 9]: 32 µg/mL (≈ 80.4 µM)

Cc1nn(-c2ccc(F)cc2)c(Cl)c1C(=O)Oc1ncn(-c2ccc(F)cc2)n1 [Compound 4f, 1-(4-fluorophenyl)-1H-1,2,4-triazol-3-yl5-chloro-1-(4-fluorophenyl)-3-methyl-1H-pyrazole-4-carboxylate]
MIC S.a [3, 7]: >128 µg/mL | MIC L.m [1, 8]: >128 µg/mL | MIC E. c [4]: >128 µg/mL | MIC S.e [2, 9]: >128 µg/mL

Cc1nn(-c2ccc(Cl)cc2)c(Cl)c1C(=O)Oc1ncn(-c2ccc(F)cc2)n1 [Compound 4g, 1-(4-fluorophenyl)-1H-1,2,4-triazol-3-yl5-chloro-1-(4-chlorophenyl)-3-methyl-1H-pyrazole-4-carboxylate]
MIC S.a [3, 7]: 64 µg/mL (≈ 148 µM) | MIC L.m [1, 8]: 64 µg/mL (≈ 148 µM) | MIC E. c [4]: 64 µg/mL (≈ 148 µM) | MIC S.e [2, 9]: 64 µg/mL (≈ 148 µM)

Cc1ccc(-n2nc(C)c(C(=O)Oc3ncn(-c4ccc(F)cc4)n3)c2Cl)cc1 [Compound 4h, 1-(4-fluorophenyl)-1H-1,2,4-triazol-3-yl5-chloro-3-methyl-1-(p-tolyl)-1H-pyrazole-4-carboxylate]
MIC S.a [3, 7]: 8 µg/mL (≈ 19.4 µM) | MIC L.m [1, 8]: 16 µg/mL (≈ 38.9 µM) | MIC E. c [4]: 32 µg/mL (≈ 77.7 µM) | MIC S.e [2, 9]: 32 µg/mL (≈ 77.7 µM)

Cc1nn(-c2ccc(F)cc2)c(Cl)c1C(=O)Oc1ncn(-c2ccc(Cl)cc2)n1 [Compound 4i, 1-(4-chlorophenyl)-1H-1,2,4-triazol-3-yl5-chloro-1-(4-fluorophenyl)-3-methyl-1H-pyrazole-4-carboxylate]
MIC S.a [3, 7]: >128 µg/mL | MIC L.m [1, 8]: 64 µg/mL (≈ 148 µM) | MIC E. c [4]: >128 µg/mL | MIC S.e [2, 9]: 64 µg/mL (≈ 148 µM)

Cc1nn(-c2ccc(Cl)cc2)c(Cl)c1C(=O)Oc1ncn(-c2ccc(Cl)cc2)n1 [Compound 4j, 1-(4-chlorophenyl)-1H-1,2,4-triazol-3-yl5-chloro-1-(4-chlorophenyl)-3-methyl-1H-pyrazole-4-carboxylate]
MIC S.a [3, 7]: 64 µg/mL (≈ 143 µM) | MIC L.m [1, 8]: 64 µg/mL (≈ 143 µM) | MIC E. c [4]: 64 µg/mL (≈ 143 µM) | MIC S.e [2, 9]: 32 µg/mL (≈ 71.3 µM)

Cc1ccc(-n2cnc(OC(=O)c3c(C)nn(-c4ccccc4)c3Cl)n2)cc1 [Compound 4k, 1-(p-tolyl)-1H-1,2,4-triazol-3-yl-5-chloro-3-methyl-1-phenyl-1H-pyrazole-4-carboxylate]
IC50 Gyrase [5]: 25.7 µg/mL (≈ 65.3 µM) | MIC S.a [3, 7]: 4 µg/mL (≈ 10.2 µM) | MIC L.m [1, 8]: 8 µg/mL (≈ 20.3 µM) | MIC E. c [4]: 4 µg/mL (≈ 10.2 µM) | MIC S.e [2, 9]: 4 µg/mL (≈ 10.2 µM) | IC50 Topo IV [6]: 33.1 µg/mL (≈ 84 µM)

Cc1ccc(-n2cnc(OC(=O)c3c(C)nn(-c4ccc(F)cc4)c3Cl)n2)cc1 [Compound 4l, 1-(p-tolyl)-1H-1,2,4-triazol-3-yl5-chloro-1-(4-fluorophenyl)-3-methyl-1H-pyrazole-4-carboxylate]
MIC S.a [3, 7]: 32 µg/mL (≈ 77.7 µM) | MIC L.m [1, 8]: 64 µg/mL (≈ 155 µM) | MIC E. c [4]: 32 µg/mL (≈ 77.7 µM) | MIC S.e [2, 9]: 32 µg/mL (≈ 77.7 µM)
